Data reported in patent publication US20060234909A1, “Compositions and methods for increasing drug efficiency” (priority 2003, published 2006).
Primed or numbered codes have the meaning given here. * marks the point of attachment. 10Ca = carbamate linkage conjugating the peptide-PEG to paclitaxel at C10; PEG(13)″ = PEG(13) linker; Cbz = O=C(OCc1ccccc1)*; Piv = CC(C)(C)C(=O)*; OBn = c1ccc(CO*)cc1; PXL = paclitaxel

Experiments:
Human Src = target: T1, Human Src (Homo sapiens, UniProt P12931); test: Src kinase assay (PKLight ATP utilization, substrate phosphorylation as % of parent peptide); type: biochemical
T1 construct: purchased Upstate (Charlottesville, Va.) 14-326
Procedure: Another test may involve monitoring the consumption of ATP. For example, ATP concentrations at time 0 or after 4 hour incubation may be monitored by luciferase reaction (PKLight kit obtained from Cambrex Corporation, One Meadowlands Plaza, East Rutherford, N.J. 07073), which generate a luminescence readout in the presence of ATP. Assays are initiated by mixing a kinase and a peptide in the presence of 40 μM ATP. After 4 hour of incubation at 30° C., PKLight reagent is added and mixed well, and luminescence readout measured. The rate of peptide phosphorylation is then directly related to the rate of decrease in the observed luminescence. Based on the first test, linkers of appropriate lengths and peptides with an effective amount of kinase activity which may be expected to be retained in the drug conjugate may be found.
Human Src (#14-326) and Akt (#14-276) kinases were purchased from Upstate (Charlottesville, Va.). Kinase reactions were carried out in 50 μl kinase reaction cocktail (25 mM Tris-HCl, pH 7.5, 5 μM β-glycerophosphate, 2 mM DTT, 0.1 mM Na3VO4, 10 mM MgCl2, 1 mg/ml BSA, […], 0.5 to 1.0 units enzyme). Substrates (peptide or drug-peptide conjugate in […]) were added (25, 50 and 100 μM) and the reaction was incubated for 2-5 hours at 30° C. PKLight reagent (23 μl) (Cambrex BioSciences, Rockland, Me.) was mixed with […] of the above kinase reaction and ATP utilization relative to no substrate and no ATP controls was determined by measuring luminescence with a SpectraMax Gemini EM plate reader (Molecular Devices, Sunnyvale, Calif.). Peptide substrates for Src and Akt have been described. For examples, see Lou et al. Letters in Peptide Science, 2, 289-296 (1995); Lou et al. Bioorganic & Medicinal Chemistry, 4, 677-682 (1996); Alessi et al. FEBS Letters, 399, 333-338 (1996). Substrate phosphorylation potential was determined from the linear portion of the substrate concentration dose response as a percentage of the activity observed with the parent peptide used for drug conjugation.

tubulin = test: Fluorescence-based tubulin polymerization assay (MPA; enhancement for paclitaxel, inhibition for vinblastine); type: biochemical
From the text: Drug-linker constructs may further be screened using functional assays predictive of biological activity. […] Tubulin assembly or inhibition thereof may be monitored by fluorescence using the CytoDYNAMIX Screen™ 10 kit available from Cytoskeleton (1830 S. Acoma St., Denver, Colo.). […] Emission is monitored at 405 nm with excitation at 360 nm. […] Tubulin assembly or inhibition may also be monitored by light scattering which is approximated by the apparent absorption at 350 nm. For paclitaxel drug conjugates BSA is employed to prevent aggregation and glycerol, which is a tubulin polymerization enhancer, is omitted from the kit to increase the signal to noise ratio.
The assay kit (#BK011) was purchased from Cytoskeleton (Denver, Colo.). The assays were carried out according to the manufacturer's instructions, except that 1 mg/ml BSA (Sigma #A3059) was included in all assays. […] Parent drugs and conjugates were tested at 0.75, 1.5, 3 and 10 micromolar final concentration and results represent a comparison of conjugate and parent drug curves obtained from the linear range of the dose responses.
(±SD) represent the average of all tests carried out for all lots of a given compound.

MCF-7 breast carcinoma = test: Cytotoxicity assay (monolayer), MCF-7; type: cell-based; conditions: MCF7, ML (monolayer); read-out: MCF7 (EC50 Ave) ML;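 also: cells treated 72 h with 6-8 compound doses versus DMSO vehicle controls, EC50 fitted by 4-parameter dose-response curves, averaged across all tests and lots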
[1] = system: HT-29 colorectal carcinoma; test: Cytotoxicity assay (monolayer), HT-29; type: cell-based; conditions: HT29, ML (monolayer); read-out: HT29 (EC50 Ave) ML;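 also: monolayer cultures tested in triplicate, compound exposure for three days against DMSO vehicle controls, EC50 fitted from dose-response curves and averaged across all tests and lots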
HUVEC = test: Cytotoxicity assay (monolayer), HUVEC; type: cell-based; conditions: ML (monolayer), read-out: HUVEC (EC50 Ave) ML
[2] = system: Normal human foreskin fibroblasts (HFF); conditions: read-out: HFF (EC50 Ave) ML; HFF, ML (monolayer)
MCF-7 cells = conditions: read-out: MCF7 (EC50 Ave) SA; MCF7, SA (soft agar)
HT-29 cells = conditions: read-out: HT29 (EC50 Ave) SA; HT29, SA (soft agar)

| Compound | Average src kinase activity (Human Src) | Ave. MPA Act. (tubulin) | EC50 (MCF-7 breast carcinoma) [nM] | EC50 [1] [nM] | EC50 (HUVEC) [nM] | EC50 [2] [nM] | EC50 (MCF-7 cells) [nM] | EC50 (HT-29 cells) [nM] |
| --- | --- | --- | --- | --- | --- | --- | --- | --- |
| Pv-E(Bzl)YIYGSFK(CBz)-PEG(13)-10Ca-PXL (Piv-E(OBn)YIYGSFK(Cbz)-{PEG(13)″-10Ca-PXL}; also: TFA salt) | A (A<20) | A (A<50) | > 100 | > 100 | > 100 | > 100 | 20 to 100 | > 100 |
| C=CCOC(=O)O[C@@H](C(=O)O[C@H]1C[C@@]2(O)[C@@H](OC(=O)c3ccccc3)[C@@H]3[C@]4(OC(C)=O)CO[C@@H]4C[C@H](O)[C@@]3(C)C(=O)[C@H](OC(C)=O)C(=C1C)C2(C)C)[C@@H](NC(=O)c1ccccc1)c1ccccc1 [PXL-2′Alloc] | – | A (A<50) | < 20 | < 20 | < 20 | < 20 | < 20 | < 20 |
| CC[C@]1(O)C[C@@H]2CN(CCc3c([nH]c4ccccc34)[C@@](C(=O)OC)(c3cc4c(cc3OC)N(C)[C@H]3[C@@](O)(C(=O)NCCCCCCN)[C@H](O)[C@]5(CC)C=CCN6CC[C@]43[C@@H]65)C2)C1 [VBL-3Am-ALK(6)-NH2] | – | C (C>80) | < 20 | < 20 | < 20 | < 20 | < 20 | < 20 |
| CC[C@]1(O)C[C@@H]2CN(CCc3c([nH]c4ccccc34)[C@@](C(=O)OC)(c3cc4c(cc3OC)N(C)[C@H]3[C@@](O)(C(=O)NCCCCCCCCN)[C@H](O)[C@]5(CC)C=CCN6CC[C@]43[C@@H]65)C2)C1 [VBL-3Am-ALK(8)-NH2] | – | B (B=50-80) | < 20 | < 20 | < 20 | < 20 | < 20 | < 20 |
| CC[C@]1(O)C[C@@H]2CN(CCc3c([nH]c4ccccc34)[C@@](C(=O)OC)(c3cc4c(cc3OC)N(C)[C@H]3[C@@](O)(C(=O)OC)[C@H](O)[C@]5(CC)C=CCN6CC[C@]43[C@@H]65)C2)C1 [Desacetyl vinblastine] | – | C (C>80) | < 20 | < 20 | < 20 | < 20 | < 20 | < 20 |
| CC(=O)O[C@H]1C(=O)[C@]2(C)[C@@H](OC(=O)CCCCCN)C[C@H]3OC[C@@]3(OC(C)=O)[C@H]2[C@H](OC(=O)c2ccccc2)[C@]2(O)C[C@H](OC(=O)[C@H](O)[C@@H](NC(=O)c3ccccc3)c3ccccc3)C(C)=C1C2(C)C [PXL-7Es-ALK(5)-NH2] | – | A (A<50) | 100 to 1000 | 100 to 1000 | < 20 | < 20 | < 20 | < 20 |
| CC(=O)O[C@@]12CO[C@@H]1C[C@H](O)[C@@]1(C)C(=O)[C@H](OC(=O)CCCCCCNC(=O)OCc3ccccc3)C3=C(C)[C@@H](OC(=O)[C@H](O)[C@@H](NC(=O)c4ccccc4)c4ccccc4)C[C@@](O)([C@@H](OC(=O)c4ccccc4)[C@H]21)C3(C)C [PXL-10Es-Alk(6)-NH(Z)] | – | A (A<50) | < 20 | < 20 | < 20 | < 20 | < 20 | < 20 |
| CC[C@]1(O)C[C@@H]2CN(CCc3c([nH]c4ccccc34)[C@@](C(=O)OC)(c3cc4c(cc3OC)N(C)[C@H]3[C@@](O)(C(=O)NCCCCCCNC(=O)OC(C)(C)C)[C@H](O)[C@]5(CC)C=CCN6CC[C@]43[C@@H]65)C2)C1 [VBL-3Am-ALK(6)-NH(B)] | – | A (A<50) | < 20 | < 20 | < 20 | < 20 | < 20 | < 20 |
| CC[C@]1(O)C[C@@H]2CN(CCc3c([nH]c4ccccc34)[C@@](C(=O)OC)(c3cc4c(cc3OC)N(C)[C@H]3[C@@](O)(C(=O)NCCCCCCCCCCCCNC(=O)OC(C)(C)C)[C@H](O)[C@]5(CC)C=CCN6CC[C@]43[C@@H]65)C2)C1 [VBL-3Am-ALK(12)-NH(B)] | – | A (A<50) | 20 to 100 | 100 to 1000 | < 20 | < 20 | < 20 | < 20 |
